Laboratory results published in paper PMC10082216 (Nature Communications, 2023).

Legend:
[1] = tested on: stage V gametocytes of P. falciparum (3D7 pULG8-GFP strain); test: Post-screening validation with 96-well plate microsphiltration (Paris); assay type: cell-based, Plasmodium falciparum; conditions: eight-hour exposure
healthy subjects = test: TD-6450 phase I clinical study (SAD/MAD): safety and tolerability; assay type: in vivo, human
Source text: This was a phase I, double-blinded, randomized, placebo-controlled, Single Ascending Dose (SAD) and Multiple Ascending Dose (MAD) study to evaluate the safety and tolerability of TD-6450 in healthy subjects (primary objective) and the pharmacokinetics (secondary objective). The study is available in the website clinicaltrial.gov (identifier NCT02022306), it started on February the 4th 2014 (first subject enrolled) and was concluded on August the 18th 2014 (last subject concluded), in the Healthcare Discoveries (a subsidiary of ICON Development Solutions) in San Antonio, Texas, USA. Healthy, non-smoking subjects with no history of significant medical conditions, with a BMI included between 18 and 30 kg/m^2, who weight at least 50 kg, between 18 and 60 years old, were selected for this study. Subjects were able and willing to give an informed consent. No bias was reported in the selection process. The protocol and all amendments for this study and all accompanying material that was provided to subjects (including advertisements, subject’s information sheets, and descriptions of the study used to obtain informed consent) were submitted by the investigator to the centralized Institutional Review Board (IRB), namely the IntegReview, established in 1999 at Austin (Texas, U.S.A.) and acquired by Advarra in 2020. Documented approval was obtained before the study was started, on March the 28th 2014. This study was conducted in accordance with the protocol, the principles of the International Conference on Harmonization of Technical Requirements for Registration of Pharmaceuticals for Human Use (ICH) Guideline for Good Clinical Practice (GCP), the United States Code of Federal Regulations, the principles of the World Medical Association Declaration of Helsinki, Ethical Principles for Medical Research Involving Human Subjects, and all applicable regulatory requirement.
Primary and secondary outcomes were pre-defined as follows: Safety and tolerability as a primary outcome, pharmacokinetics as a secondary outcome. Safety and tolerability were evaluated using standard measures, including adverse event (AE) monitoring, clinical laboratory tests (hematology, serum chemistry, coagulation, and urinalysis), vital signs, physical examinations, and 12-lead electrocardiograms (ECGs). […] Pharmacokinetics were evaluated by the collection of blood samples from each subject at following time points: predose (within 30 min before dosing, only in day 1 60 min before dosing), and 0.5,1,2,3,4,6,8 and 12 hours after dosing.
This study was conducted in two parts, Part A (SAD) and Part B (MAD). For the Part A, the age of enrolled subjects ranged from 20 to 60 years, with a mean age range of 32.1 to 46.2 years. Most subjects were male (73 total subjects) and most were white (55 subjects) or black (22 subjects). For Part B of the study, ages ranged from 23 to 60 years with a similar mean age across treatment groups. Most subjects were male (25 total subjects) and all were either white (18 subjects) or black (12 subjects). For each part of the study, the mean body mass index (BMI) and creatinine clearance were similar across treatment groups. […] Part A: Healthy subjects were sequentially enrolled and randomly assigned to each dose cohort (up to 10 dose-ascending cohorts were planned, including a fed arm in the food effect cohort) to receive either a single dose of TD-6450 or placebo. For each dose cohort, 8 subjects were randomized in a 3:1 ratio (6 subjects received TD-6450 and 2 subjects received placebo). The starting dose of TD-6450 was 0.5 mg with a planned maximum dose of 1000 mg. Upon review of the 500-mg cohort PK data, the decision was made to not escalate to the 1000-mg cohort because of exposure saturation at ≥ 500 mg. The following doses were administered: 0.5 mg, 1.5 mg, 5 mg, 15 mg, 30 mg, 60 mg, 120 mg, 240 mg, and 500 mg. […]

[2] = read-out: Cmax in humans; at the lowest dose; ref not given; cited from earlier work

For `CNC(=O)N1C[C@@H](C)N(c2ccc(C(=O)Nc3ccc(-c4ccc(-c5c[nH]c([C@@H]6CCCN6C(=O)[C@@H](NC(=O)OC)C(C)C)n5)cc4)c(OC(F)(F)F)c3)cn2)C[C@@H]1C` [TD-6450], the “concentration that significantly stiffens mature gametocytes” value [1] was 200 nM, the “At least one AE N (%)” value (healthy subjects; MAD 60 mg once daily 14 days) was 4 (50.0) N (%) and the “At least one SAE N (%)” value (healthy subjects; MAD 60 mg once daily 14 days) was 0 (0.0) N (%). The “Death N (%)” value (healthy subjects; MAD 60 mg once daily 14 days) was 0 (0.0) N (%), the “Discontinuation due to an AE N (%)” value (healthy subjects; MAD 60 mg once daily 14 days) was 0 (0.0) N (%) and the “At least one AE N (%)” value (healthy subjects; MAD 120 mg once daily 14 days) was 3 (37.5) N (%). For the same compound, the “At least one SAE N (%)” value (healthy subjects; MAD 120 mg once daily 14 days) was 0 (0.0) N (%), the “Death N (%)” value (healthy subjects; MAD 120 mg once daily 14 days) was 0 (0.0) N (%) and the “Discontinuation due to an AE N (%)” value (healthy subjects; MAD 120 mg once daily 14 days) was 0 (0.0) N (%). The “At least one AE N (%)” value (healthy subjects; MAD 240 mg once daily 14 days) was 3 (37.5) N (%), the “At least one SAE N (%)” value (healthy subjects; MAD 240 mg once daily 14 days) was 0 (0.0) N (%) and the “Death N (%)” value (healthy subjects; MAD 240 mg once daily 14 days) was 0 (0.0) N (%). For the same compound, the “Discontinuation due to an AE N (%)” value (healthy subjects; MAD 240 mg once daily 14 days) was 0 (0.0) N (%), the “At least one AE N (%)” value (healthy subjects; SAD 0.5 mg) was 3 (50.0) N (%) and the “At least one SAE N (%)” value (healthy subjects; SAD 0.5 mg) was 0 (0.0) N (%). The “Death N (%)” value (healthy subjects; SAD 0.5 mg) was 0 (0.0) N (%), the “Discontinuation due to an AE N (%)” value (healthy subjects; SAD 0.5 mg) was 0 (0.0) N (%) and the “At least one AE N (%)” value (healthy subjects; SAD 1.5 mg) was 3 (50.0) N (%). For the same compound, the “At least one SAE N (%)” value (healthy subjects; SAD 1.5 mg) was 0 (0.0) N (%), the “Death N (%)” value (healthy subjects; SAD 1.5 mg) was 0 (0.0) N (%) and the “Discontinuation due to an AE N (%)” value (healthy subjects; SAD 1.5 mg) was 0 (0.0) N (%). For the same compound, the “At least one AE N (%)” value (healthy subjects; SAD 5 mg) was 0 (0.0) N (%), the “At least one SAE N (%)” value (healthy subjects; SAD 5 mg) was 0 (0.0) N (%) and the “Death N (%)” value (healthy subjects; SAD 5 mg) was 0 (0.0) N (%). For the same compound, the “Discontinuation due to an AE N (%)” value (healthy subjects; SAD 5 mg) was 0 (0.0) N (%), the “At least one AE N (%)” value (healthy subjects; SAD 15 mg) was 1 (16.7) N (%) and the “At least one SAE N (%)” value (healthy subjects; SAD 15 mg) was 0 (0.0) N (%). The “Death N (%)” value (healthy subjects; SAD 15 mg) was 0 (0.0) N (%), the “Discontinuation due to an AE N (%)” value (healthy subjects; SAD 15 mg) was 0 (0.0) N (%) and the “At least one AE N (%)” value (healthy subjects; SAD 30 mg) was 1 (16.7) N (%). For the same compound, the “At least one SAE N (%)” value (healthy subjects; SAD 30 mg) was 0 (0.0) N (%), the “Death N (%)” value (healthy subjects; SAD 30 mg) was 0 (0.0) N (%) and the “Discontinuation due to an AE N (%)” value (healthy subjects; SAD 30 mg) was 0 (0.0) N (%). The “At least one AE N (%)” value (healthy subjects; SAD 60 mg) was 0 (0.0) N (%), the “At least one SAE N (%)” value (healthy subjects; SAD 60 mg) was 0 (0.0) N (%) and the “Death N (%)” value (healthy subjects; SAD 60 mg) was 0 (0.0) N (%). For the same compound, the “Discontinuation due to an AE N (%)” value (healthy subjects; SAD 60 mg) was 0 (0.0) N (%), the “At least one AE N (%)” value (healthy subjects; SAD 120 mg) was 1 (16.7) N (%) and the “At least one SAE N (%)” value (healthy subjects; SAD 120 mg) was 0 (0.0) N (%). For the same compound, the “Death N (%)” value (healthy subjects; SAD 120 mg) was 0 (0.0) N (%), the “Discontinuation due to an AE N (%)” value (healthy subjects; SAD 120 mg) was 0 (0.0) N (%) and the “At least one AE N (%)” value (healthy subjects; SAD 240 mg) was 0 (0.0) N (%). The “At least one SAE N (%)” value (healthy subjects; SAD 240 mg) was 0 (0.0) N (%), the “Death N (%)” value (healthy subjects; SAD 240 mg) was 0 (0.0) N (%) and the “Discontinuation due to an AE N (%)” value (healthy subjects; SAD 240 mg) was 0 (0.0) N (%). The “At least one AE N (%)” value (healthy subjects; SAD 500 mg) was 2 (33.3) N (%), the “At least one SAE N (%)” value (healthy subjects; SAD 500 mg) was 0 (0.0) N (%) and the “Death N (%)” value (healthy subjects; SAD 500 mg) was 0 (0.0) N (%). The “Discontinuation due to an AE N (%)” value (healthy subjects; SAD 500 mg) was 0 (0.0) N (%) and the “severe adverse events in Phase 1 study” value (healthy subjects; single or multiple doses) was “no severe adverse events”.
For `C[C@H]1Cc2c([nH]c3cc(Cl)c(F)cc23)[C@@]2(N1)C(=O)Nc1ccc(Cl)cc12` [NITD609, cipargamin], the Cmax [2] is given as 630 nM.
